Source: ChEMBL document CHEMBL4118250, “Discovery of Novel Pyrazole-Based Selective Aldosterone Synthase (CYP11B2) Inhibitors: A New Template to Coordinate the Heme-Iron Motif of CYP11B2” (J Med Chem, 2018)

What was measured:
[1] = Apparent passive permeability in human Caco2 cells; assay type: ADME, cell-based; details: Caco-2
[2] = Solubility of the compound; assay type: physicochemical
Cynomolgus monkey [3] = assay: Time at which maximum plasma concentration stays above in vitro human CYP11B2 IC50 in cynomolgus monkey at 3 mg/kg, po administered as single dose by LC-MS/MS analysis; assay type: ADME, organism-based, Macaca fascicularis; details: in vivo
Cynomolgus monkey [4] = assay: Time at which maximum plasma concentration stays below in vitro human CYP11B2 IC50 in cynomolgus monkey at 3 mg/kg, po administered as single dose by LC-MS/MS analysis; assay type: ADME, organism-based, Macaca fascicularis; details: in vivo
[5] = Tmax in cynomolgus monkey at 1 mg/kg, po administered as single dose by LC-MS/MS analysis; assay type: ADME, organism-based, Macaca fascicularis; details: in vivo

In the case of `Cc1cc(C#N)ccc1-c1cnn2c1C[C@@H](O)C2`, the Papp [1] is reported as 68.4 ×10⁻⁶ cm/s, the solubility [2] is reported as “Soluble” and the Time (Cynomolgus monkey [3]) is reported as 8 h. The Time (Cynomolgus monkey [4]) was 24 h.

Work on `Cc1cc(C#N)ccc1-c1cnn2c1C[C@@H](Oc1ncc(F)cn1)C2` yielded a Papp [1] of 62.3 ×10⁻⁶ cm/s and a Tmax [5] of 4 h.
